Activity data for one molecule are collected here from ChEMBL document CHEMBL2074506, “Effects of ursodeoxycholic and cholic acid feeding on hepatocellular transporter expression in mouse liver” (Gastroenterology, 2001).

Type in all cases: functional, organism-based
Data set [1] addresses T1, ATP-binding cassette sub-family C member 2 (Mus musculus, UniProt Q8VI47). As to the kind of experiment: TP_TRANSPORTER: Western (protein level: increase to 350%) in vivo, liver of Him OF1 mouse.
Data set [2] has as its target T1, ATP-binding cassette sub-family C member 2. The experiment in a line: TP_TRANSPORTER: RT-PCR (mRNA level: 3 fold) in vivo, liver of Him OF1 mouse.
Data set [3] concerns the target T2, ATP-dependent translocase ABCB1 (Mus musculus, UniProt P21447). The experiment in a line: TP_TRANSPORTER: Western (protein level: increase to 220%) in vivo, liver of Him OF1 mouse.
The target in data set [4] is T2, ATP-dependent translocase ABCB1. The experiment in a line: TP_TRANSPORTER: RT-PCR (mRNA level: 2 fold) in vivo, liver of Him OF1 mouse.
In data set [5] the target is T3, Solute carrier organic anion transporter family member 1A1 (Mus musculus, UniProt Q9QXZ6).
T3 sequence (Q9QXZ6 whole entry): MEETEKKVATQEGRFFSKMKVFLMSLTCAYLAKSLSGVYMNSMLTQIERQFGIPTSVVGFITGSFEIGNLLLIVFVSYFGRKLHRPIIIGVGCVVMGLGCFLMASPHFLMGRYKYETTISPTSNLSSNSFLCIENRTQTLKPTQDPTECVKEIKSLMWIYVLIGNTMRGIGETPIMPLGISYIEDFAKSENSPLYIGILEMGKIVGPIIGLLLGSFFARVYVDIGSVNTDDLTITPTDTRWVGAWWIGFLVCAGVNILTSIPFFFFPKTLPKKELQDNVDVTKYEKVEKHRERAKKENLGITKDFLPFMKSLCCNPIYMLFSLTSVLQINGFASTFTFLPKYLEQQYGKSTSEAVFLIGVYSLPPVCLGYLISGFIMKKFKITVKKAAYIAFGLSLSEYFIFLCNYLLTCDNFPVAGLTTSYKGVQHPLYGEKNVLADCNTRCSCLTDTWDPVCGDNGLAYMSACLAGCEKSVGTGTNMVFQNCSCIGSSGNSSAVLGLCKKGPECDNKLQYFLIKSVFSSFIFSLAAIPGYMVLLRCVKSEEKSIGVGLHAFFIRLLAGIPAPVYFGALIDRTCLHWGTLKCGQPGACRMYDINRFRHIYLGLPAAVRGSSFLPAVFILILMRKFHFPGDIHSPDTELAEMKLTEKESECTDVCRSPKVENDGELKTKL
The experiment in a line: TP_TRANSPORTER: Western (protein level: reduction to 45% of control) in vivo, liver of Him OF1 mouse.

Data set [6] has as its target T3, Solute carrier organic anion transporter family member 1A1. The experiment in a line: TP_TRANSPORTER: RT-PCR (mRNA level: reduction to 72 % of control) in vivo, liver of Him OF1 mouse.

T1 sequence (Q8VI47 whole entry): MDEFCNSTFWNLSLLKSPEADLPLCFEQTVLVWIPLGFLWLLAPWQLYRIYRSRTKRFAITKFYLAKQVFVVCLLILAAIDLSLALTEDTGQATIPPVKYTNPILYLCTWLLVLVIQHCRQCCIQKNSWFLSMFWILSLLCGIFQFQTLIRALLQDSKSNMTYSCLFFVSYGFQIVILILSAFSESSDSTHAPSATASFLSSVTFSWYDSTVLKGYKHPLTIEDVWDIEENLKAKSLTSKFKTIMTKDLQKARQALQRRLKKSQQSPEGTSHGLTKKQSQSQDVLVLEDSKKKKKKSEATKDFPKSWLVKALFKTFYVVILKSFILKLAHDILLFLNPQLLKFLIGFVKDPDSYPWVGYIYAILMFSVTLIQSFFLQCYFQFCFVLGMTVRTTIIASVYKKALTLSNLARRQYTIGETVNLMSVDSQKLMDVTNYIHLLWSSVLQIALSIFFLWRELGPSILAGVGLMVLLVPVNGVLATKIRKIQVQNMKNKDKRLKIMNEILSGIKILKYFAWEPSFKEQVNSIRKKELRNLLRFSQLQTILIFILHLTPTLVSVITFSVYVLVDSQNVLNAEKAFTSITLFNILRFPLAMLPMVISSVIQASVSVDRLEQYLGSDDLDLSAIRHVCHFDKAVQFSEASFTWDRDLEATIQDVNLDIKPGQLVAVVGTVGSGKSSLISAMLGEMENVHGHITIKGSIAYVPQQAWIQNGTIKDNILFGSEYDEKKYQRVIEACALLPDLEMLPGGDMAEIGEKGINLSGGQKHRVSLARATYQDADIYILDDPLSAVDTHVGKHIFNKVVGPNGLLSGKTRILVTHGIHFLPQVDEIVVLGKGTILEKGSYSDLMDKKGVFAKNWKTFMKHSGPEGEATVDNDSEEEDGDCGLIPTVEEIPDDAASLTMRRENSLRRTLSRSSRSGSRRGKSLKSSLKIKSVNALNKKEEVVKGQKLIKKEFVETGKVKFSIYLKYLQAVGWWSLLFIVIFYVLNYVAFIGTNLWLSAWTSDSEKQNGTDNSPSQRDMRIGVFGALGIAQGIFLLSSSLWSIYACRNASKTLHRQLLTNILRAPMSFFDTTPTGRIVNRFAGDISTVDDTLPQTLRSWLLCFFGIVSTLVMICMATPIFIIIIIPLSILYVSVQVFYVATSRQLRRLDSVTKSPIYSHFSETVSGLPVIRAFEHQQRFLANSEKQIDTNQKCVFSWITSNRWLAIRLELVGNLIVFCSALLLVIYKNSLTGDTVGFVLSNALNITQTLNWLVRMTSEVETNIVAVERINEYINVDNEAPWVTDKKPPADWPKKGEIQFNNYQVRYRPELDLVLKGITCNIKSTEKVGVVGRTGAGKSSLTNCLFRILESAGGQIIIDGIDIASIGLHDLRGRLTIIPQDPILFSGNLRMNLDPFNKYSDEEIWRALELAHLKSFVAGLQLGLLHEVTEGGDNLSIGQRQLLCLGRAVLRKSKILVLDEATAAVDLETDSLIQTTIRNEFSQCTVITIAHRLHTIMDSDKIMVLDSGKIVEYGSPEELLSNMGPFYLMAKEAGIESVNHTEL
T2 sequence (P21447 whole entry): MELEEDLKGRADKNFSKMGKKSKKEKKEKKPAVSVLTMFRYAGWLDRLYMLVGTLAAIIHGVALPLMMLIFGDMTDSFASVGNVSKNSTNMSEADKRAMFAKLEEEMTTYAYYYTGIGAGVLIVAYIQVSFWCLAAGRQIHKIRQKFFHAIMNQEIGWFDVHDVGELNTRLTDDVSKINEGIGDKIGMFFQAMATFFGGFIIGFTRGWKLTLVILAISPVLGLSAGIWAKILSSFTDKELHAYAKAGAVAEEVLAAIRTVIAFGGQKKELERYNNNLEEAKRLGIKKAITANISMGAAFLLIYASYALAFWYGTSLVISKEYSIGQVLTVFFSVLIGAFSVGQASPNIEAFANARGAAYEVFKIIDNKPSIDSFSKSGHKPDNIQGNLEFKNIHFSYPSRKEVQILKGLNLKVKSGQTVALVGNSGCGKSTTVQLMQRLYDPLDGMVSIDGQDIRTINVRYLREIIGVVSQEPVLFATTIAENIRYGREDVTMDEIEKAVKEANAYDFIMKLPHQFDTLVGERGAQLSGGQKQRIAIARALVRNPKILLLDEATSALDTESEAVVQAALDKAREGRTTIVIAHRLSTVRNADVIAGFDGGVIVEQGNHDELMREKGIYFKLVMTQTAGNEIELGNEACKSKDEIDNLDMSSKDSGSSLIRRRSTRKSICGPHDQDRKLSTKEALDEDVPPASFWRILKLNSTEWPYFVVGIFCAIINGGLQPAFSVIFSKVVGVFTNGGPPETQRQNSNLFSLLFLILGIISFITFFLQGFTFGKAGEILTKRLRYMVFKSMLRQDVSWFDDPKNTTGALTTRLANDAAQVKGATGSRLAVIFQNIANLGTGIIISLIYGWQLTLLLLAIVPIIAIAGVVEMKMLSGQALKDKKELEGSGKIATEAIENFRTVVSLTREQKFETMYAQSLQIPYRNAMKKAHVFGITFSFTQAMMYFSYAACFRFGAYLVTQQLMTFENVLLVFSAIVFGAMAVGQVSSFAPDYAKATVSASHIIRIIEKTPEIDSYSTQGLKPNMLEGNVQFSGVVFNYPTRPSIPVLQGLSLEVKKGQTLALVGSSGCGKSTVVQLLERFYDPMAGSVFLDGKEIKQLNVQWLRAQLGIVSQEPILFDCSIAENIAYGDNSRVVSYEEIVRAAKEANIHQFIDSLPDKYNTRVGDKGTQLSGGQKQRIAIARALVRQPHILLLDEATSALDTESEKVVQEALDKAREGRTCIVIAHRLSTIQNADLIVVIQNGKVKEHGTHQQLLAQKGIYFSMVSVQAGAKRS

Consider `C[C@H](CCC(=O)O)[C@H]1CC[C@H]2[C@@H]3[C@@H](O)C[C@@H]4C[C@H](O)CC[C@]4(C)[C@H]3CC[C@]12C` [URSODIOL], for which the Activity entry in data set [1] was “inducer [+]”; in data set [2], “inducer [+]”; in data set [3], “inducer [+]”; in data set [4], “inducer [+]”; in data set [5], “inducer [Decrease]”; in data set [6] it was “inducer [Decrease]”.
